Structures can show the parent of a compound that is named as a salt.
assay: in vitro; conditions: rat, gh3-tre-luc cells, AC50 (uM) modified / 1000

Structure (SMILES)	CC50 at 24 h
Cc1c(-c2ccc(O)cc2)n(Cc2ccc(OCCN3CCCCCC3)cc2)c2ccc(O)cc12 [Bazedoxifene acetate]	8.31 µM
COC1CCC=CO1 (stereo not drawn) [3,4-Dihydro-2-methoxy-2H-pyran]	> 90 µM
COC(=O)C(Cl)C(=O)OC [Dimethyl chloromalonate]	> 50 µM
Clc1ccnc(Cl)n1 [2,4-Dichloropyrimidine]	> 90 µM
CC[C@@H](CO)NC(=O)[C@@H]1C=C2c3cccc4c3c(cn4C)C[C@H]2N(C)C1 [Methysergide]	> 50 µM
O=[N+]([O-])c1ccc(F)c(Cl)c1 [2-Chloro-1-fluoro-4-nitrobenzene]	> 90 µM
Cc1ccsc1/C=C/C1=NCCCN1C [Morantel tartrate]	> 20 µM
NCCO/C=C/[C@H](N)C(=O)O [Aviglycine hydrochloride]	> 50 µM
C/C=C/C(=O)Oc1ccccc1[N+](=O)[O-] [Dinocap]	14.3 µM
CCc1nccnc1CC [2,3-Diethylpyrazine]	> 30 µM
CC(=O)Nc1ccc(C)cc1C [N-(2,4-Dimethylphenyl)acetamide]	> 90 µM
CCCCOCCOC(=O)c1ccccc1C(=O)OCCOCCCC [Bis(2-butoxyethyl) phthalate]	> 90 µM
Cc1cc(C)c(C)cc1C [1,2,4,5-Tetramethylbenzene]	> 90 µM
CCCCCCCCCCCC(=O)N(CC)CC [N,N-Diethyldodecanamide]	> 90 µM
CC(C)(Sc1cc(C(C)(C)C)c(O)c(C(C)(C)C)c1)Sc1cc(C(C)(C)C)c(O)c(C(C)(C)C)c1 [Probucol]	> 20 µM
O=S(=O)(c1ccc(Cl)cc1)c1cc(Cl)c(Cl)cc1Cl [Tetradifon]	60.5 µM
CC(C)Cn1cnc2c1c(=O)n(C)c(=O)n2C [Isbufylline]	> 50 µM
COc1ccc(C(=CC(=O)N2CCOCC2)c2ccc(Cl)cc2)cc1OC [Dimethomorph]	> 90 µM
CC12CC1(C)C(=O)N(c1cc(Cl)cc(Cl)c1)C2=O (stereo not drawn) [Procymidone]	> 90 µM
O=C(Nc1ccc2[nH]ccc2c1)c1cc2cc(F)ccc2n1Cc1cccc(F)c1 [SAR115740]	14.6 µM
C=C[C@H]1C[N@@]2CC[C@H]1C[C@@H]2[C@@H](O)c1ccnc2ccc(OC)cc12 [Quinidine]	85.2 µM
Cc1ccc(N)cc1Cl [3-Chloro-4-methylaniline]	> 90 µM
C1=COCCC1 [3,4-Dihydro-2H-pyran]	> 90 µM
CN(C)CCCNCCCN [Dimethyldipropylenetriamine]	> 90 µM
N[C@@H](C(=O)N[C@@H]1C(=O)N2C(C(=O)O)=C(Cl)CS[C@H]12)c1ccccc1 [Cefaclor]	> 50 µM

Structure (SMILES)	CC50 at 24 h
CNC1(C)C2CCC(C2)C1(C)C (stereo not drawn) [Mecamylamine]	> 50 µM
O=c1cc[nH]c(=O)[nH]1 [Uracil]	> 90 µM
CNC(=S)NN [N-Methylhydrazinecarbothioamide]	52.5 µM
CCCCCCCCn1sc(Cl)c(Cl)c1=O [4,5-Dichloro-2-octyl-3(2H)-isothiazolone]	12.7 µM
C#CCC(Cc1cnc2nc(N)nc(N)c2n1)c1ccc(C(=O)N[C@@H](CCC(=O)O)C(=O)O)cc1 (stereo partly drawn) [Pralatrexate]	> 50 µM
CC1(C)C(C=C(Cl)Cl)C1C(=O)OCc1cccc(Oc2ccccc2)c1 (stereo not drawn) [Permethrin]	> 90 µM
Nc1nc(N)nc(-c2cc(Cl)ccc2Cl)n1 [Irsogladine maleate]	> 50 µM
O=C(Oc1ccccc1C(=O)O)c1ccccc1O [Salsalate]	> 50 µM
CCCCCCCCCCCCCCCCCCOP(=O)([O-])OC1CC[N+](C)(C)CC1 [Perifosine]	> 20 µM
OCCOCCN1CCN(C2=Nc3ccccc3Sc3ccccc32)CC1 [Quetiapine]	> 50 µM
CCCCCCCO [1-Heptanol]	> 90 µM
C[N+]1(C)[C@@H]2CC[C@H]1CC(OC(=O)c1c[nH]c3ccccc13)C2 (stereo partly drawn) [Tropisetron methyliodide]	> 50 µM
CCOC(=O)COc1ccc2c(c1)C[C@@H](NC[C@H](O)c1cccc(Cl)c1)CC2 [SR58611]	24.3 µM
CO/N=C(\C(=O)N[C@@H]1C(=O)N2C(C(=O)O)=CCS[C@H]12)c1csc(N)n1 [Ceftizoxime sodium]	> 50 µM
CC[N+]1(C)CCCC(OC(=O)C(O)(c2ccccc2)c2ccccc2)C1 (stereo not drawn) [Pipenzolate bromide]	> 50 µM
CCCCCCCCCCC(CO)CCCCCCCC (stereo not drawn) [2-Octyl-1-dodecanol]	> 90 µM
CC(C)C1OCCN1CCOC(=O)NCCCCCCNC(=O)OCCN1CCOC1C(C)C (stereo not drawn) [Bis{2-[2-(propan-2-yl)-1,3-oxazolidin-3-yl]ethyl} hexane-1,6-diylbiscarbamate]	> 90 µM
O=C(Nc1ncc([N+](=O)[O-])s1)c1cccs1 [Tenonitrozole]	30.4 µM
c1ccc(CCCc2ccncc2)cc1 [4-(3-Phenylpropyl)pyridine]	> 90 µM
COc1cc(/C=C/C(=O)N2CCN(CC(=O)N3CCCC3)CC2)cc(OC)c1OC [Cinepazide maleate]	> 50 µM
O=C1c2ccccc2-c2n[nH]c3cccc1c23 [SP600125]	> 50 µM
COc1cccc(C(=O)NN(C(=O)c2cc(C)cc(C)c2)C(C)(C)C)c1C [Methoxyfenozide]	> 90 µM
C=CC(=O)OCCCCCC [Hexyl acrylate]	> 90 µM
c1ccc2nccnc2c1 [Quinoxaline]	> 90 µM
Nc1ccc(F)cc1F [2,4-Difluoroaniline]	> 90 µM

Structure (SMILES)	CC50 at 24 h
COC(=O)/C=C\C(=O)OC [Dimethyl maleate]	> 90 µM
O=C1CCN(c2ccccc2)N1 [3-Pyrazolidinone,1-phenyl-]	> 90 µM
CO[Si](CCCn1c(=O)n(CCC[Si](OC)(OC)OC)c(=O)n(CCC[Si](OC)(OC)OC)c1=O)(OC)OC [1,3,5-Tris[3-(trimethoxysilyl)propyl]-1,3,5-triazinane-2,4,6-trione]	> 70 µM
CCCCCCCCCCOc1cc2c(O)c(C(=O)OCC)cnc2cc1OCC [Decoquinate]	> 50 µM
CC[C@H](NC(=O)c1cc(F)ccc1NS(=O)(=O)c1cccc2cccnc12)c1ccccc1 [AVE3295]	> 90 µM
CC(=O)Nc1ccc(OC(=O)c2ccccc2OC(C)=O)cc1 [Benorylate]	> 50 µM
CC(O)CC(C)(C)O (stereo not drawn) [2-Methyl-2,4-pentanediol]	> 90 µM
O=C(O)CCC(=O)OC[C@@H](NC(=O)C(Cl)Cl)[C@H](O)c1ccc([N+](=O)[O-])cc1 [Chloramphenicol sodium succinate]	> 50 µM
O=C(O)CCCCCCCCCCCC(=O)O [Tridecanedioic acid]	> 90 µM
CC(=O)NNC(C)=O [Diacetyl hydrazine]	> 90 µM
O=C(O)c1ccccc1[N+](=O)[O-] [2-Nitrobenzoic acid]	> 90 µM
CC(C)(c1cc(Br)c(OCCO)c(Br)c1)c1cc(Br)c(OCCO)c(Br)c1	44.3 µM
CCOC(=O)[C@H](CCc1ccccc1)N[C@@H](C)C(=O)N1CCC[C@H]1C(=O)O [Enalapril]	> 50 µM
O=C(O)CCn1c2c(c3ccccc31)C[C@H](NS(=O)(=O)c1ccc(F)cc1)CC2 [Ramatroban]	> 50 µM
CCOC(=O)c1ccccc1 [Ethyl benzoate]	> 90 µM
CC1(C)CC(N=C=O)CC(C)(CN=C=O)C1 (stereo not drawn) [Isophorone diisocyanate]	> 90 µM
N#CC(CCc1ccc(Cl)cc1)(Cn1cncn1)c1ccccc1 (stereo not drawn) [Fenbuconazole]	49.1 µM
CC(=O)CC(C)C [4-Methyl-2-pentanone]	> 90 µM
C#CCN1CC(=O)N(COC(=O)C2C(C=C(C)C)C2(C)C)C1=O (stereo not drawn) [Imiprothrin]	> 50 µM
CCCCCN(C)CCC(O)(P(=O)(O)O)P(=O)(O)O [Ibandronate sodium]	> 50 µM
CCN[C@H]1CN(CCCOC)S(=O)(=O)c2sc(S(N)(=O)=O)cc21 [Brinzolamide]	> 20 µM
Cc1ccc(S(=O)(=O)NC(=O)NC2CCCCCCC2)cc1 [Glyoctamide]	> 50 µM
CCCOc1cc(N)ccc1C(=O)OCCN(CC)CC [Propoxycaine hydrochloride]	> 20 µM
C=C(C)C(=O)OCC(CC)CCCC (stereo not drawn) [2-Ethylhexyl methacrylate]	> 90 µM

same assay, conditions: rat, gh3-tre-luc cells, AC50 (uM) modified / 1000, Tox21_110001=Tox21_113416; viability, 1 nM T3 present, 24 h

Structure (SMILES)	CC50 at 24 h
COP(=S)(OC)Oc1cc(Cl)c(Cl)cc1Cl [Fenchlorphos]	> 50 µM

same assay, conditions: rat, gh3-tre-luc cells, AC50 (uM) modified / 1000, Tox21_110001=Tox21_200022; viability, 1 nM T3 present, 24 h

Structure (SMILES)	CC50 at 24 h
O=[N+]([O-])c1cccc(O)c1 [3-Nitrophenol]	> 90 µM

same assay, conditions: rat, gh3-tre-luc cells, AC50 (uM) modified / 1000, Tox21_110001=Tox21_200092; viability, 1 nM T3 present, 24 h

Structure (SMILES)	CC50 at 24 h
COP(=O)(OC)OC(=CCl)c1cc(Cl)c(Cl)cc1Cl [Tetrachlorovinphos]	> 100 µM

same assay, conditions: rat, gh3-tre-luc cells, AC50 (uM) modified / 1000, Tox21_110001=Tox21_200490; viability, 1 nM T3 present, 24 h

Structure (SMILES)	CC50 at 24 h
O=C1CCCO1 [4-Butyrolactone]	> 90 µM

same assay, conditions: rat, gh3-tre-luc cells, AC50 (uM) modified / 1000, Tox21_110001=Tox21_200907; viability, 1 nM T3 present, 24 h

Structure (SMILES)	CC50 at 24 h
COC1=CC(=O)O[C@@H](/C=C/c2ccccc2)C1 [Kavain]	> 90 µM

same assay, conditions: rat, gh3-tre-luc cells, AC50 (uM) modified / 1000, Tox21_110001=Tox21_201491; viability, 1 nM T3 present, 24 h

Structure (SMILES)	CC50 at 24 h
CCCCC(CC)COC(=O)Cl (stereo not drawn) [2-Ethylhexyl chloroformate]	> 90 µM

same assay, conditions: rat, gh3-tre-luc cells, AC50 (uM) modified / 1000, Tox21_110001=Tox21_202098; viability, 1 nM T3 present, 24 h

Structure (SMILES)	CC50 at 24 h
COc1nc(NC(C)C)nc(NC(C)C)n1 [Prometon]	> 90 µM

same assay, conditions: rat, gh3-tre-luc cells, AC50 (uM) modified / 1000, Tox21_110001=Tox21_301334; viability, 1 nM T3 present, 24 h

Structure (SMILES)	CC50 at 24 h
COP(=S)(OC)Oc1cc(Cl)c(Cl)cc1Cl [Fenchlorphos]	> 90 µM

same assay, conditions: rat, gh3-tre-luc cells, AC50 (uM) modified / 1000, Tox21_110001=Tox21_301421; viability, 1 nM T3 present, 24 h

Structure (SMILES)	CC50 at 24 h
CCOP(=S)(OCC)SCn1nnc2ccccc2c1=O [Azinphos-ethyl]	> 90 µM

same assay, conditions: rat, gh3-tre-luc cells, AC50 (uM) modified / 1000, Tox21_110001=Tox21_302136; viability, 1 nM T3 present, 24 h

Structure (SMILES)	CC50 at 24 h
COc1cccc(C=O)c1 [3-Methoxybenzaldehyde]	> 90 µM

Source: article PMC6792352, “Limited Chemical Structural Diversity Found to Modulate Thyroid Hormone Receptor in the Tox21 Chemical Library” (Environmental Health Perspectives, 2019)
